Target: human OX2R (Homo sapiens (Human), UniProt O43614)
Experiment: IPOne (IP-1) assay in CHO cells expressing human OX2R
Format: cell-based
Conditions: for IC50: CHO cells expressing human OX2R, IP-One detection, 2 hours incubation, EC50 = inflection point of four parameter logistic fit, read-out: hOX2R_IP_IC50; for Emax: CHO, percentage of mean max effect of a reference compound at 1 uM (100% activity by comparison to Orexin A), human OX2R, read-out: Emax (%)
Text: The utility of the compounds in accordance with the present invention as orexin receptor OX1R and/or OX2R agonists may be readily determined without undue experimentation by methodology well known in the art. Both the OX1R and/or OX2R G-coupled protein receptors (GPCRs) couple through the Gαq signaling pathway, which ultimately promotes calcium mobilization via inositol triphosphate (IP3) production. The half-life of IP-3 is relatively short, being rapidly metabolized to inositol monophosphate (IP-1), which can be readily detected using a commercially available assay kit (IP-One; Cisbio; cat #621PAPEC) coupled with a cell line expressing the target receptor(s) of interest. The utility of the compounds in accordance with the present invention as orexin receptor OX1R and/or OX2R agonists may be determined utilizing this assay.
In a typical experiment, the OX1 and OX2 receptor agonist activity is determined in accordance with the following general experimental method. Chinese hamster ovary (CHO) cells expressing human OX1R and/or the human OX2R were grown in Iscove's modified DMEM containing glutaMAX™, 1% G418, 100 U/mL penicillin, 100 μg/mL streptomycin and 10% heat-inactivated qualified fetal bovine serum (FBS). The OX2R cells were seeded at 10,000 cells/well/50 μL and the OX1R cells were seeded at 20,000 cells/well/50 μL into 384-well white tissue culture plates (Greiner; cat #781080). All cell/media reagents were from GIBCO-Invitrogen Corp. The seeded cell plate(s) were incubated at 37° C. with 5% CO2 and 85% humidity for 20-24 hours. On the day of the assay, assay-ready compound plates were prepared using an acoustic liquid handler (ECHO; Labcyte), which dispensed sufficient volume of test compound stock (10 mM in DMSO) or 100% DMSO to prepare 10 point, ½-log dilutions in a final volume of 202.5 nL/well in all test wells of a 384-well diamond plate (Labcyte). Following completion of assay-ready plates, importantly, the next three steps were performed with minimal delay: 1) 20 μl of 1× stimulation buffer was added to the compound plate using a Multidrop Combi (small cassette, Thermo Fisher Scientific cat #24073290); 2) culture medium was removed from the cell plate using the Bluewasher plate washer (gentle spin; BlueCatBio); 3) 14 μl of compound/stimulation buffer mixture was added to the cell plate using a Bravo liquid handler (Agilent) prior to incubating cell plates at 37° C. with 5% CO2 and 85% humidity for 1 or 2 hours (OX1R and OX2R, respectively). During this incubation, IP-one detection reagents were prepared (38:1:1 lysis buffer:D2:AB-cryptate reagents). Six μL of mixed detection reagents were added to the cell plate using a Multidrop Combi (small cassette, Thermo Fisher Scientific cat #24073290) and incubated 60 minutes at room temperature in the dark. Fluorescence signal was detected using an Envision plate reader (Perkin Elmer) [LANCE/DELFIA Dual Enh (Em: APC 665; Ex: Cy5 620)].
For each compound, data were fit to a four parameter logistic fit (ActivityBase software) and the EC50 was reported as the inflection point of the resulting curve. Percent effect for each test compound was determined as the percentage of sample raw value/mean max effect, where the mean max effect was derived from the mean raw value of 32 control wells per assay plate (using Orexin A (cat #003-30) at 1 μM for human OX1R and a reference compound at 1 uM with 100% activity previously established by comparison to Orexin A for human OX2R). The intrinsic orexin receptor agonist activity of a compound which may be used in the present invention may be determined by these assays.

Chain of human OX2R (O43614 whole entry): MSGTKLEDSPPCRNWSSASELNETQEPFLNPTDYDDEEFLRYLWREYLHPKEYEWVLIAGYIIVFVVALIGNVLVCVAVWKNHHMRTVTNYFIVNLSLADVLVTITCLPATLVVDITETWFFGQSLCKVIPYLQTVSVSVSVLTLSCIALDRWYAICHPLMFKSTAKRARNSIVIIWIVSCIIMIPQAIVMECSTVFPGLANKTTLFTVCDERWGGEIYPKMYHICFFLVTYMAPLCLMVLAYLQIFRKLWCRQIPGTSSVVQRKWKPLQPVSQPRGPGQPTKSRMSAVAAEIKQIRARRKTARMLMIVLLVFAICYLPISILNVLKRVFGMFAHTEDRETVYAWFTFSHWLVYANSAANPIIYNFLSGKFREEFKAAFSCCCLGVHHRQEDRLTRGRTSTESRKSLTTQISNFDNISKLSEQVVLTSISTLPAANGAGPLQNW

SMILES	IC50 [nM]	Emax [%]
COC(=O)N1[C@H](C(F)F)C[C@H](NS(=O)(=O)C(F)F)[C@@H]1CO[C@H]1CC[C@@]2(c3ncc(F)cn3)C[C@H]2C1 (single isomer, unassigned) [Example 112]	0.78	100
COC(=O)N1[C@H](C(F)F)C[C@H](NS(=O)(=O)CF)[C@@H]1CO[C@H]1CC[C@@]2(c3ncc(F)cn3)C[C@H]2C1 (single isomer, unassigned) [Example 113]	0.6	103
CCS(=O)(=O)N[C@H]1C[C@@H](C(F)F)N(C(=O)OC)[C@H]1CO[C@H]1CC[C@@]2(c3ncc(Cl)cn3)C[C@H]2C1 (single isomer, unassigned) [Example 114]	1.4	98.6
COC(=O)N1[C@H](C(F)F)C[C@H](NS(=O)(=O)CF)[C@@H]1CO[C@H]1CC[C@@]2(c3ncc(Cl)cn3)C[C@H]2C1 (single isomer, unassigned) [Example 115]	1.1	103
CCS(=O)(=O)N[C@H]1C[C@@H](C(F)F)N(C(=O)OC(C)C)[C@H]1CO[C@H]1CC[C@@]2(c3ncc(F)cn3)C[C@H]2C1 (single isomer, unassigned) [Example 118]	0.99	100
CC(C)OC(=O)N1CCC[C@H](NS(=O)(=O)CF)[C@@H]1CO[C@H]1CC[C@@]2(c3ncc(F)cn3)C[C@H]2C1 (single isomer, unassigned) [Example 124]	0.37	99.3
CC(C)OC(=O)N1CCC[C@H](NS(C)(=O)=O)[C@@H]1CO[C@H]1CC[C@@]2(c3ncc(F)cn3)C[C@H]2C1 (single isomer, unassigned) [Example 125]	0.95	103
COC(=O)N1[C@H](C(F)F)C[C@H](NS(C)(=O)=O)[C@@H]1CO[C@H]1CC[C@@]2(c3ncc(F)cn3)C[C@H]2C1 (single isomer, unassigned) [Example 127]	1.7	101
COC(=O)N1[C@@H]2CCC[C@@H]2[C@H](NS(C)(=O)=O)[C@@H]1CO[C@H]1CC[C@@]2(c3ncc(F)cn3)C[C@H]2C1 (single isomer, unassigned) [Example 131]	1.8	101
COC(=O)N1[C@H](C(F)(F)F)C[C@H](NS(C)(=O)=O)[C@@H]1CO[C@H]1CC[C@@]2(c3ncc(F)cn3)C[C@H]2C1 (single isomer, unassigned) [Example 133]	2.6	101
COC(=O)N1[C@H](C)C[C@H](NS(C)(=O)=O)[C@@H]1COC1CC[C@@]2(c3nccs3)C[C@H]2C1 (single isomer, unassigned) [Example 146]	50.7	101
CC(C)OC(=O)N1[C@H](C)C[C@H](NS(C)(=O)=O)[C@@H]1CO[C@@H]1CC[C@]2(c3ncc(Cl)cn3)C[C@@H]2C1 (single isomer, unassigned) [Example 150]	19.6	102
CC(C)OC(=O)N1[C@H](C)C[C@H](NS(C)(=O)=O)[C@@H]1CO[C@H]1CC[C@@]2(c3ncc(Cl)cn3)C[C@H]2C1 (single isomer, unassigned) [Example 151]	4.4	101
COC(=O)N1[C@H](C)C[C@H](NS(C)(=O)=O)[C@@H]1CO[C@@H]1CC[C@]2(c3ncc(C)cn3)C[C@@H]2C1 (single isomer, unassigned) [Example 155]	717	54.3
COC(=O)N1[C@H](C)C[C@H](NS(C)(=O)=O)[C@@H]1CO[C@H]1CC[C@@]2(c3ncc(C)cn3)C[C@H]2C1 (single isomer, unassigned) [Example 156]	19.2	102
CC(C)OC(=O)N1[C@H](C)C[C@H](NS(=O)(=O)N(C)C)[C@@H]1CO[C@@H]1CC[C@]2(c3ncc(F)cn3)C[C@@H]2C1 (single isomer, unassigned) [Example 160]	1.6	102
CC(C)OC(=O)N1[C@H](C)C[C@H](NS(=O)(=O)N(C)C)[C@@H]1CO[C@H]1CC[C@@]2(c3ncc(F)cn3)C[C@H]2C1 (single isomer, unassigned) [Example 161]	0.8	102
